Source: the supplement of paper PMC5908809

Legend:
[1] = test system: normal NK cells expanded with K562-aAPC; assay: drug sensitivity score (DSS) (DSS units); higher = more sensitive; extreme values may be limits of the assay; settings: 72 h; IL-2 2.5 ng/mL
Procedure: (§1)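 Drug sensitivity and resistance testing on K562-aAPC-expanded normal NK cells: 5 concentrations (10-fold steps over a 10,000-fold range), 72 h at 37 °C, viability by CellTiter-Glo normalised to DMSO and benzethonium chloride controls; DSS from the fitted curve.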

[2] = test system: normal NK cells expanded with K562-aAPC; assay: percent inhibition of viability; higher = more inhibition; settings: 72 h, IL-2 2.5 ng/mL
Procedure: as §1

[3] = test system: normal primary NK cells, pool 2 (3 donors) (IL-2 2.5 ng/mL); assay: drug sensitivity score (DSS) (DSS units); higher = more sensitive; extreme values may be limits of the assay; settings: 72 h
NKL (IL-2 2.5 ng/mL) [4] = assay: as above; settings: 72 h
NK-92 (IL-2 2.5 ng/mL) [5] = assay: as above; settings: 72 h
[6] = test system: normal primary NK cells, pool 3 (3 donors) (IL-2 2.5 ng/mL); assay: as above; settings: 72 h
YT (IL-2 2.5 ng/mL) [7] = assay: as above; settings: 72 h
NK-YS (IL-2 2.5 ng/mL) [8] = assay: as above; settings: 72 h
[9] = test system: normal primary NK cells, pool 1 (3 donors) (IL-2 2.5 ng/mL); assay: as above; settings: 72 h
IMC-1 (IL-2 20 ng/mL) [10] = assay: as above; settings: 72 h
DERL-7 (IL-2 2.5 ng/mL) [11] = assay: as above; settings: 72 h
[12] = test system: normal primary NK cells, pool 1 (3 donors), resting (IL-2 0 ng/mL); assay: as above; settings: 72 h
KHYG-1 (IL-2 2.5 ng/mL) [13] = assay: as above; settings: 72 h
KAI3 (IL-2 2.5 ng/mL) [14] = assay: as above; settings: 72 h
SNK-6 (IL-2 2.5 ng/mL) [15] = assay: as above; settings: 72 h
[16] = test system: normal primary NK cells, pool 2 (3 donors) (IL-2 2.5 ng/mL); assay: percent inhibition of viability; higher = more inhibition; settings: 72 h
NKL (IL-2 2.5 ng/mL) [17] = assay: as above; settings: 72 h
NK-92 (IL-2 2.5 ng/mL) [18] = assay: as above; settings: 72 h
[19] = test system: normal primary NK cells, pool 3 (3 donors) (IL-2 2.5 ng/mL); assay: as above; settings: 72 h
YT (IL-2 2.5 ng/mL) [20] = assay: as above; settings: 72 h
NK-YS (IL-2 2.5 ng/mL) [21] = assay: as above; settings: 72 h
[22] = test system: normal primary NK cells, pool 1 (3 donors) (IL-2 2.5 ng/mL); assay: as above; settings: 72 h
IMC-1 (IL-2 20 ng/mL) [23] = assay: as above; settings: 72 h
DERL-7 (IL-2 2.5 ng/mL) [24] = assay: as above; settings: 72 h
[25] = test system: normal primary NK cells, pool 1 (3 donors), resting (IL-2 0 ng/mL); assay: as above; settings: 72 h
KHYG-1 (IL-2 2.5 ng/mL) [26] = assay: as above; settings: 72 h
KAI3 (IL-2 2.5 ng/mL) [27] = assay: as above; settings: 72 h
SNK-6 (IL-2 2.5 ng/mL) [28] = assay: as above; settings: 72 h

## CCS(=O)(=O)c1cccc(-c2cc(C(=O)NC3CCN(C)CC3)c(C)c3[nH]c4ncc(C)cc4c23)c1 [TAK-901] (max concentration tested 1000 nM)
[1]
  drug sensitivity score: 2.88
[2]; 0.1 nM
  percent inhibition of viability: -4.46%
[2]; 1 nM
  percent inhibition of viability: -2.36%
[2]; 10 nM
  percent inhibition of viability: -2.68%
[2]; 100 nM
  percent inhibition of viability: 2.78%
[2]; 1000 nM
  percent inhibition of viability: 47.6%
[3]
  drug sensitivity score: 0.75
NKL (IL-2 2.5 ng/mL) [4]
  drug sensitivity score: 7.8
NK-92 (IL-2 2.5 ng/mL) [5]
  drug sensitivity score: 0
[6]
  drug sensitivity score: 0
YT (IL-2 2.5 ng/mL) [7]
  drug sensitivity score: 2.64
NK-YS (IL-2 2.5 ng/mL) [8]
  drug sensitivity score: 12.9
[9]
  drug sensitivity score: 2.88
IMC-1 (IL-2 20 ng/mL) [10]
  drug sensitivity score: 10.6
DERL-7 (IL-2 2.5 ng/mL) [11]
  drug sensitivity score: 12.5
[12]
  drug sensitivity score: 1.6
KHYG-1 (IL-2 2.5 ng/mL) [13]
  drug sensitivity score: 5.36
KAI3 (IL-2 2.5 ng/mL) [14]
  drug sensitivity score: 8.03
SNK-6 (IL-2 2.5 ng/mL) [15]
  drug sensitivity score: 6.86
[16]; 0.1 nM
  percent inhibition of viability: -4.84%
[16]; 1 nM
  percent inhibition of viability: -2.84%
[16]; 10 nM
  percent inhibition of viability: -10.5%
[16]; 100 nM
  percent inhibition of viability: -3.4%
[16]; 1000 nM
  percent inhibition of viability: 24.9%
NKL (IL-2 2.5 ng/mL) [17]; 0.1 nM
  percent inhibition of viability: -9.65%
NKL (IL-2 2.5 ng/mL) [17]; 1 nM
  percent inhibition of viability: -9.74%
NKL (IL-2 2.5 ng/mL) [17]; 10 nM
  percent inhibition of viability: -13.2%
NKL (IL-2 2.5 ng/mL) [17]; 100 nM
  percent inhibition of viability: 31.8%
NKL (IL-2 2.5 ng/mL) [17]; 1000 nM
  percent inhibition of viability: 67.5%
NK-92 (IL-2 2.5 ng/mL) [18]; 0.1 nM
  percent inhibition of viability: -8.6%
NK-92 (IL-2 2.5 ng/mL) [18]; 1 nM
  percent inhibition of viability: -16.9%
NK-92 (IL-2 2.5 ng/mL) [18]; 10 nM
  percent inhibition of viability: -4.19%
NK-92 (IL-2 2.5 ng/mL) [18]; 100 nM
  percent inhibition of viability: -5.4%
NK-92 (IL-2 2.5 ng/mL) [18]; 1000 nM
  percent inhibition of viability: 6%
[19]; 0.1 nM
  percent inhibition of viability: 1.04%
[19]; 1 nM
  percent inhibition of viability: -10.9%
[19]; 10 nM
  percent inhibition of viability: -10.6%
[19]; 100 nM
  percent inhibition of viability: -10.1%
[19]; 1000 nM
  percent inhibition of viability: 8.18%
YT (IL-2 2.5 ng/mL) [20]; 0.1 nM
  percent inhibition of viability: 0.92%
YT (IL-2 2.5 ng/mL) [20]; 1 nM
  percent inhibition of viability: -0.2%
YT (IL-2 2.5 ng/mL) [20]; 10 nM
  percent inhibition of viability: 0.62%
YT (IL-2 2.5 ng/mL) [20]; 100 nM
  percent inhibition of viability: 11.9%
YT (IL-2 2.5 ng/mL) [20]; 1000 nM
  percent inhibition of viability: 28.7%
NK-YS (IL-2 2.5 ng/mL) [21]; 0.1 nM
  percent inhibition of viability: -2.75%
NK-YS (IL-2 2.5 ng/mL) [21]; 1 nM
  percent inhibition of viability: -0.83%
NK-YS (IL-2 2.5 ng/mL) [21]; 10 nM
  percent inhibition of viability: 5.54%
NK-YS (IL-2 2.5 ng/mL) [21]; 100 nM
  percent inhibition of viability: 65.6%
NK-YS (IL-2 2.5 ng/mL) [21]; 1000 nM
  percent inhibition of viability: 70.5%
[22]; 0.1 nM
  percent inhibition of viability: -7.61%
[22]; 1 nM
  percent inhibition of viability: -7.94%
[22]; 10 nM
  percent inhibition of viability: 3.96%
[22]; 100 nM
  percent inhibition of viability: 1%
[22]; 1000 nM
  percent inhibition of viability: 52%
IMC-1 (IL-2 20 ng/mL) [23]; 0.1 nM
  percent inhibition of viability: -1.14%
IMC-1 (IL-2 20 ng/mL) [23]; 1 nM
  percent inhibition of viability: 1.82%
IMC-1 (IL-2 20 ng/mL) [23]; 10 nM
  percent inhibition of viability: -2.81%
IMC-1 (IL-2 20 ng/mL) [23]; 100 nM
  percent inhibition of viability: 39.8%
IMC-1 (IL-2 20 ng/mL) [23]; 1000 nM
  percent inhibition of viability: 96.9%
DERL-7 (IL-2 2.5 ng/mL) [24]; 0.1 nM
  percent inhibition of viability: -2.6%
DERL-7 (IL-2 2.5 ng/mL) [24]; 1 nM
  percent inhibition of viability: 5.56%
DERL-7 (IL-2 2.5 ng/mL) [24]; 10 nM
  percent inhibition of viability: -0.1%
DERL-7 (IL-2 2.5 ng/mL) [24]; 100 nM
  percent inhibition of viability: 67.8%
DERL-7 (IL-2 2.5 ng/mL) [24]; 1000 nM
  percent inhibition of viability: 79.7%
[25]; 0.1 nM
  percent inhibition of viability: -2.04%
[25]; 1 nM
  percent inhibition of viability: -13.9%
[25]; 10 nM
  percent inhibition of viability: 9.75%
[25]; 100 nM
  percent inhibition of viability: -5.23%
[25]; 1000 nM
  percent inhibition of viability: 39.3%
KHYG-1 (IL-2 2.5 ng/mL) [26]; 0.1 nM
  percent inhibition of viability: -0.42%
KHYG-1 (IL-2 2.5 ng/mL) [26]; 1 nM
  percent inhibition of viability: -4.46%
KHYG-1 (IL-2 2.5 ng/mL) [26]; 10 nM
  percent inhibition of viability: -1.82%
KHYG-1 (IL-2 2.5 ng/mL) [26]; 100 nM
  percent inhibition of viability: 9.29%
KHYG-1 (IL-2 2.5 ng/mL) [26]; 1000 nM
  percent inhibition of viability: 69%
KAI3 (IL-2 2.5 ng/mL) [27]; 0.1 nM
  percent inhibition of viability: 1.13%
KAI3 (IL-2 2.5 ng/mL) [27]; 1 nM
  percent inhibition of viability: 2.62%
KAI3 (IL-2 2.5 ng/mL) [27]; 10 nM
  percent inhibition of viability: 9.88%
KAI3 (IL-2 2.5 ng/mL) [27]; 100 nM
  percent inhibition of viability: 32.9%
KAI3 (IL-2 2.5 ng/mL) [27]; 1000 nM
  percent inhibition of viability: 77.5%
SNK-6 (IL-2 2.5 ng/mL) [28]; 0.1 nM
  percent inhibition of viability: 6.55%
SNK-6 (IL-2 2.5 ng/mL) [28]; 1 nM
  percent inhibition of viability: 11.7%
SNK-6 (IL-2 2.5 ng/mL) [28]; 10 nM
  percent inhibition of viability: 6.25%
SNK-6 (IL-2 2.5 ng/mL) [28]; 100 nM
  percent inhibition of viability: 25.7%
SNK-6 (IL-2 2.5 ng/mL) [28]; 1000 nM
  percent inhibition of viability: 70.1%
